Experiment: Membrane penetration testing of piroxicam-containing cream, human skin membrane, test series (II)
Type: in vitro ADME
Settings: 1% piroxicam cream, 34° C., no air flow
Protocol: In the test, the acceptor phase comprises 0.9 weight % sodium chloride solution. The flow rate of the acceptor phase is 0.3 ml/min. During the first test series (I), a cellophane membrane, during the second test series (II), a human skin membrane was used. Temperature of the cell was kept at 34° C. During both test series, the cell was exposed to natural sunlight. No air flow was applied. The membrane was allowed to stabilize for 60 minutes. After the stabilization period, 300 to 400 mg of test preparation measured by analytical precision are applied to the membrane homogeneously in 2-3 seconds. The flow of the acceptor phase is resumed and effluent fractions for periods of 30 minute each are collected. […] The high-performance liquid chromatographic analysis is carried out using external standard method in a reversed phase system. The separation is carried out using a Nucleosil C18 (250 mm×4.6 mm i.d.) column and a buffer-acetonitrile-methanol (1000:660:340, v/v/v) mobile phase. The separation is performed at the temperature of 40° C. Flow rate of the mobile phase is 1.0 ml/min. Detection is carried out by ultraviolet photodiode array detector in the wavelength range of 250 to 450 nm.

Cumulative amount of dissolved piroxicam, % Series (II) (fraction 1, 0-30 min): 0.00%
Cumulative amount of dissolved piroxicam, % Series (II) (fraction 2, 30-60 min): 0.00%
Cumulative amount of dissolved piroxicam, % Series (II) (fraction 3, 60-90 min): 0.00%
Cumulative amount of dissolved piroxicam, % Series (II) (fraction 4, 90-120 min): 0.00%
Cumulative amount of dissolved piroxicam, % Series (II) (fraction 5, 120-150 min): 0.01%
Cumulative amount of dissolved piroxicam, % Series (II) (fraction 6, 150-180 min): 0.02%
Cumulative amount of dissolved piroxicam, % Series (II) (fraction 7, 180-210 min): 0.02%
Cumulative amount of dissolved piroxicam, % Series (II) (fraction 8, 210-240 min): 0.03%
Cumulative amount of dissolved piroxicam, % Series (II) (fraction 9, 240-270 min): 0.04%
Cumulative amount of dissolved piroxicam, % Series (II) (fraction 10, 270-300 min): 0.05%
Cumulative amount of dissolved piroxicam, % Series (II) (fraction 11, 300-330 min): 0.05%
Cumulative amount of dissolved piroxicam, % Series (II) (fraction 12, 330-360 min): 0.06%
SMILES: CN1C(C(=O)Nc2ccccn2)=C(O)c2ccccc2S1(=O)=O [piroxicam]

Source: patent US20120167671A1, “METHOD AND APPARATUS FOR TESTING TRANSDERMAL MEDICAMENTS” (EGIS GYOGYSZERGYAR NYILVANOSAN MUKODO RESZVENYTARSASAG, priority 2009, published 2012)
